By EC50 is commonly meant the concentration that produces a half-maximal response. What is called melting point is the temperature, or range, at which the solid turns liquid.

Structures are written as SMILES. Like-named read-outs stand apart in the source and are kept apart here.

This is an account of results in patent publication US20100041892A1, “Therapeutic agent for diabetes” (priority 2005, published 2010).

The test system of series [1] is KKAy mice. As to the kind of experiment: Blood glucose and blood lipid (triglyceride) lowering action in mice. It counts as in vivo. To be noted: Mus musculus, 4TO7, po, 4 to 7 days; for response vs control in vivo at 0.005 %: 0.005% in powder diet; for response vs control in vivo at 0.01 %: 0.01% in powder diet; for response vs control in vivo at 0.03 %: 0.03% in powder diet. From the text: The test compound was mixed with a powder diet (CE-2, CLEA JAPAN, INC.) at a proportion of 0.01% (0.03% for the compounds of Examples 1, 2, 12, 81, 94, 96, 129 and 143, and 0.005% for the compounds of Examples 28, 30 and 37) and freely given to KKAy mice (9 to 14-week-old, 5 mice per group) which are obesity non-insulin-dependent diabetes (type-2 diabetes) models, for 4 to 7 days. During this period, water was freely given. The blood was drawn from the orbital venous plexus. Glucose and triglyceride in the plasma separated from the blood were quantitated using L Type Wako Glu2 (Wako Pure Chemical Industries, Ltd.) and L Type Wako TG·H (Wako Pure Chemical Industries, Ltd.), respectively, according to an enzyme method.

Series [2] has as its target T1, PPARγ-RXRα heterodimer (Homo sapiens, UniProt P37231).
T1 construct: expressed in transfected cells; host or cells: CHO-K1 (PPARγ:RXRα:4ERPP/CHO-K1)
T1 sequence (P37231 1-477 isoform P37231-2): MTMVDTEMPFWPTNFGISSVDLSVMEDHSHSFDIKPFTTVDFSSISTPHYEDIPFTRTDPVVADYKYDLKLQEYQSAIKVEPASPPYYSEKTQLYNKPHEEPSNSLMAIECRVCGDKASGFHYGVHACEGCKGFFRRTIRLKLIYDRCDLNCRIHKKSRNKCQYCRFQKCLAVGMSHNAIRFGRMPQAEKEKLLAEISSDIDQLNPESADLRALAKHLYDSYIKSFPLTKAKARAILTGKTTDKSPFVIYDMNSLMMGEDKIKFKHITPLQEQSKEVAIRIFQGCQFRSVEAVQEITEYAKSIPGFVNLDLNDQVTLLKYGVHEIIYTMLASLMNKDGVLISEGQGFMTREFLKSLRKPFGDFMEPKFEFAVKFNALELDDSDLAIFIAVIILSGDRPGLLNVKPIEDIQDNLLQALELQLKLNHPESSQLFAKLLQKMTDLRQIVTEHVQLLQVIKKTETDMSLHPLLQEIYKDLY
T1 sequence (P19793 1-462 partner): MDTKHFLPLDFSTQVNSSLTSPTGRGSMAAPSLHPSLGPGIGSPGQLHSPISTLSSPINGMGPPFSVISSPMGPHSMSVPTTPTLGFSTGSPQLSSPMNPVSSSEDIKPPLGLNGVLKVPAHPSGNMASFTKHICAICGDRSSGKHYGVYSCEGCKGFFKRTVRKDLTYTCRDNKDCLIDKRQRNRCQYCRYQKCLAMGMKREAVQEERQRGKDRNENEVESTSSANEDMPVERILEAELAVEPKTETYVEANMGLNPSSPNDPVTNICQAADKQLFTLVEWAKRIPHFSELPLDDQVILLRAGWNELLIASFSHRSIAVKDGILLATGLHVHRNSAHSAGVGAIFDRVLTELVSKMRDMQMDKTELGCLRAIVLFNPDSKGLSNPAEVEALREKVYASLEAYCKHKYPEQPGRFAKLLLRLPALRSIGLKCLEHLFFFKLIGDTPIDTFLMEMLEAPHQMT
As to the kind of experiment: PPARγ-RXRα heterodimer ligand activity (luciferase reporter, PPARγ:RXRα:4ERPP/CHO-K1 cells). To be noted: concentration showing 50% of the maximum luciferase induction rate; CHO-K1 reporter cells, one day incubation. The series is classed as cell-based. The procedure: The PPARγ:RXRα:4ERPP/CHO-K1 cells described in WO03/099793 were cultured in a Ham F12 medium [manufactured by Life Technologies, Inc., US] containing 10% calf fetal serum [manufactured by Life Technologies, Inc., US], sown in a 96-well white plate (manufactured by Corning Coster Corporation, US] at 1×10^4 cells/well, and incubated overnight in a carbon dioxide gas incubator at 37° C.
Then, the medium was removed from the 96 well white plate, 45 μl of Ham F12-medium containing 0.1% fatty acid-free bovine serum albumin (BSA) and a test compound (5 μl) were added, and the cells were incubated for one day in a carbon dioxide gas incubator at 37° C. The medium was removed, 20 μl of PicaGene 7.5 (manufactured by Wako Pure Chemical Industries, Ltd.) 2-fold diluted with HBSS (HANKS' BALANCED SALT SOLUTION) [manufactured by BIO WHITTAKER, US] was added. After stirring, the luciferase activity was determined using the 1420 ARVO Multilabel Counter [manufactured by PerkinElmer, US].
The induction rate was calculated from the luciferase activity of each test compound based on the luciferase activity of the test compound non-administration group as 1. The test compound concentration and the induction rate were analyzed by PRISM [manufactured by GraphPad Software, Inc., US] to calculate EC50 value (compound concentration showing 50% of the maximum value of induction rate) of the test compound.
(Reporter assays use an easily measured gene product as a stand-in for the process of interest.)

Where [3] appears, read: plasma glucose relative to non-administration group = 100%, read-out: hypoglycemic action (%).
Setting [4] is: plasma triglyceride relative to non-administration group = 100%, read-out: hypolipidemic action (%).

Regarding `COCCOc1ccc(CCCOC(=O)NS(=O)(=O)c2ccc(C)cc2)c(Oc2ncc(C(F)(F)F)cc2Cl)c1` [Example 30, 3-[2-{[3-chloro-5-(trifluoromethyl)pyridin-2-yl]oxy}-4-(2-methoxyethoxy)phenyl]propyl [(4-methylphenyl)sulfonyl]carbamate monohydrate], the response vs control in vivo at 0.005 % in series [1] (setting [3]) worked out at 47%; in series [1] (setting [4]), 57%. The same compound returned an EC50 in series [2] of 3.8 nM.
Regarding `CCCCCS(=O)(=O)NC(=O)/C(C)=C/c1ccc(OCCOC)cc1Oc1ncc(C(F)(F)F)cc1Cl` [Example 211, (2E)-3-[2-{[3-chloro-5-(trifluoromethyl)pyridin-2-yl]oxy}-4-(2-methoxyethoxy)phenyl]-2-methyl-N-(pentylsulfonyl)acrylamide], the figures for the response vs control in vivo at 0.01 % in series [1] (setting [3]) and in series [1] (setting [4]) were 49% and 46%, respectively. Also, the response in series [2] was half-maximal at 5.2 nM (EC50).
With `COCCOc1ccc(/C=C/COC(=O)NS(=O)(=O)c2ccc(Cl)cc2)c(Oc2ncc(C(F)(F)F)cc2Cl)c1` [Example 37, (2E)-3-[2-{[3-chloro-5-(trifluoromethyl)pyridin-2-yl]oxy}-4-(2-methoxyethoxy)phenyl]-2-propen-1-yl [(4-chlorophenyl)sulfonyl]carbamate dihydrate], the response vs control in vivo at 0.005 % in series [1] (setting [3]) came out at 68%; in series [1] (setting [4]) it was 70%. Also, the EC50 in series [2] is 21 nM.
In the case of `CCCCCS(=O)(=O)NC(=O)CCc1cc(C(C)C)nn1Cc1ccc(C(F)(F)F)cc1Cl` [Example 96, 3-(1-[2-chloro-4-(trifluoromethyl)benzyl]-3-isopropyl-1H-pyrazol-5-yl)-N-(pentylsulfonyl)propanamide], the response vs control in vivo at 0.03 % in series [1] (setting [3]) worked out at 53%; in series [1] (setting [4]), 57%. The EC50 in series [2] worked out at 8.4 nM.
Taken in the same sequence, the figures for `CCCCCS(=O)(=O)NC(=O)/C=C/c1ccc(OCCOC)cc1Oc1ncc(C(F)(F)F)cc1Cl` [Example 12, (2E)-3-[2-{[3-chloro-5-(trifluoromethyl)pyridin-2-yl]oxy}-4-(2-methoxyethoxy)phenyl]-N-(pentylsulfonyl)acrylamide] were 46%, 43% and 15 nM.
As to `CCCCCS(=O)(=O)NC(=O)OCCCc1ccc(OCCOC)cc1Oc1ncc(C(F)(F)F)cc1Cl` [Example 28, 3-[2-{[3-chloro-5-(trifluoromethyl)pyridin-2-yl]oxy}-4-(2-methoxyethoxy)phenyl]propyl (pentylsulfonyl)carbamate], the response vs control in vivo at 0.005 % was found to be 52% in series [1] (setting [3]) and 32% in series [1] (setting [4]). For the same compound, in series [2], the EC50 was 4.5 nM.
With `CCCCCS(=O)(=O)NC(=O)/C=C/c1ccc(OCC(C)(C)O)cc1Oc1ncc(C(F)(F)F)cc1Cl` [Example 250, (2E)-3-[2-{[3-chloro-5-(trifluoromethyl)pyridin-2-yl]oxy}-4-(2-hydroxy-2-methylpropoxy)phenyl]-N-(pentylsulfonyl)acrylamide], the response vs control in vivo at 0.01 % in series [1] (setting [3]) was found to be 78%; in series [1] (setting [4]) it was 121%. In series [2], this compound registered an EC50 of 7.2 nM.
For the compound `CCCCCS(=O)(=O)NC(=O)CCc1ccc(OC(C)C)cc1Oc1ncc(C(F)(F)F)cc1Cl` [Example 2, 3-(2-{[3-chloro-5-(trifluoromethyl)pyridin-2-yl]oxy}-4-isopropoxyphenyl)-N-(pentylsulfonyl)propanamide], the response vs control in vivo at 0.03 % in series [1] (setting [3]) was found to be 50%; in series [1] (setting [4]) it was 41%. The same compound yielded an EC50 in series [2] of 2.6 nM.
The compound `CCCCCS(=O)(=O)NC(=O)CCc1ccc(OCCCOC)cc1Oc1ncc(C(F)(F)F)cc1Cl` [Example 258, 3-[2-{[3-chloro-5-(trifluoromethyl)pyridin-2-yl]oxy}-4-(3-methoxypropoxy)phenyl]-N-(pentylsulfonyl)propanamide] showed a melting point of 115 to 115.2 °C. Besides, the EC50 in series [2] stood at 1.1 nM.
For `CCCCCS(=O)(=O)NC(=O)/C=C/c1ccc(OCCC2(C)OCCO2)cc1Oc1ncc(C(F)(F)F)cc1Cl` [Example 453, (2E)-3-{2-{[3-chloro-5-(trifluoromethyl)pyridin-2-yl]oxy}-4-[2-(2-methyl-1,3-dioxolan-2-yl)ethoxy]phenyl}-N-(pentylsulfonyl)acrylamide], in that order: 90 to 92 °C and 7.3 nM.
Compound `COCCOc1ccc(CCCOC(=O)NS(=O)(=O)c2ccc(Cl)cc2)c(Oc2ncc(C(F)(F)F)cc2Cl)c1` [Example 32, 3-[2-{[3-chloro-5-(trifluoromethyl)pyridin-2-yl]oxy}-4-(2-methoxyethoxy)phenyl]propyl [(4 chlorophenyl)sulfonyl]carbamate] returned a melting point of 147 to 150 °C. In series [2], this compound gave a half-maximal effective concentration (EC50) of 6.6 nM.
Consider `CCCCCNS(=O)(=O)NC(=O)/C(C)=C/c1ccc(OCCOC)cc1Oc1ncc(C(F)(F)F)cc1Cl` [Example 226, (2E)-3-[2-{[3-chloro-5-(trifluoromethyl)pyridin-2-yl]oxy}-4-(2-methoxyethoxy)phenyl]-2-methyl-N-[(pentylamino)sulfonyl]acrylamide], for which the melting point lay in the range of 152.5 to 153 °C. Moreover, the EC50 in series [2] was determined as 8.5 nM.
As to `CCCCCS(=O)(=O)NC(=O)CCc1ccc(OCCOCCOC)cc1Oc1ncc(C(F)(F)F)cc1Cl` [Example 257, 3-{2-{[3-chloro-5-(trifluoromethyl)pyridin-2-yl]oxy}-4-[2-(2-methoxyethoxy)ethoxy]phenyl}-N-(pentylsulfonyl)propanamide], the melting point was 76 to 77.5 °C. The compound also came in with an EC50 in series [2] of 2.1 nM.
Compound `COCCOc1ccc(CCCOC(=O)NCC2CC2)c(Oc2ncc(C(F)(F)F)cc2Cl)c1` [Example 51, 3-[2-{[3-chloro-5-(trifluoromethyl)pyridin-2-yl]oxy}-4-(2-methoxyethoxy)phenyl]propyl (cyclopropylmethyl)carbamate] showed a melting point of 87.8 to 87.9 °C. For the same compound, the midpoint of the response in series [2], the EC50, lay at 20 nM.
The compound `CCCCCS(=O)(=O)NC(=O)/C=C/c1ccc(OCCOCCOC)cc1Oc1ncc(C(F)(F)F)cc1Cl` [Example 256, (2E)-3-{2-{[3-chloro-5-(trifluoromethyl)pyridin-2-yl]oxy}-4-[2-(2-methoxyethoxy)ethoxy]phenyl}-N-(pentylsulfonyl)acrylamide] registered a melting point of 81 to 83 °C. This compound came in with an EC50 in series [2] of 13 nM.
